Experimental data reported in US20250325676A1, “CAMPTOTHECIN PRODRUG AND PHARMACEUTICAL COMPOSITION THEREOF” (TIANJIN HEMAY ONCOLOGY PHARMACEUTICAL CO., LTD, priority 2022, published 2025).
Like-named read-outs stand apart in the source and are kept apart here.

Assays:
MDA-MB-468 = assay: In vitro inhibition of human tumor cells, MDA-MB-468, SRB method
Description: 1.1.2 Cell culture method: Cells were cultured in complete medium, 37° C., 5% CO2, saturated humidity to log growth phase (adherent cells generally attended to complete fusion), and cells were collected for subsequent experiments (adherent cells were first digested with trypsin/ethylene diamine tetraacetic acid (EDTA) to remove adherent).
1.1.3 96-well cell culture plates (hereinafter referred to as 96-well plates) were inoculated with a certain number of cells (see Table 1 for details). The cells were allowed to adhere overnight. […] Finally, the total amount of cell protein in the assay wells was determined by the SRB method, or the cell viability was determined by the MTT method:
The culture medium was aspirated from the wells and the cells were fixed for 1 hour or more by adding 10% trichloroacetic acid. Trichloroacetic acid was removed. The resultant was washed with H2O and stained with 0.4% SRB for 15 to 30 minutes. Excess SRB was removed. The resultant was washed with 1% acetic acid. The protein-bound SRB was dissolved by adding 10 mM of 100 μl Tris (trishydroxymethylaminomethane). Tests were carried out at the wavelength of 570 nm.
1.1.4 dilution and addition of β-glucuronidase: 1 to 2 mg of β-glucuronidase was weighed and dissolved in PBS to give a 2 mg/ml of stock solution. […] 80 μl of enzyme working solution was added to the enzyme-containing assay wells. The amount of β-glucuronidase was 1 μg/wells. No enzyme-containing assay wells were added to the 80 μl of complete medium.
The assay wells were charged with 20 μl of 10× compound working solution. The final volume was 200 μl per well. The DMSO concentration was 0.1%.
1.1.6 Compound inhibition activity calculation: The test included a compound test group, a compound-free positive solvent control group (PC) and a compound-free negative solvent control group (NC). […] The average inhibition rate and the standard deviation (SD) were obtained from the repeated test wells. The average inhibition rate was plotted on the basis of the compound concentration as an abscissa and distributed in the form of logarithms. The curve was fitted to the Logistic 4 parameter equation. […] The test was generally repeated to obtain 3 valid results.

NCI-N87 = assay: In vitro inhibition of human tumor cells, NCI-N87, MTT method; assay type: cell-based
[1] = system: human colon cancer HCT116; conditions: 30 mg/kg i.v. qw × 2; HCT116 large tumor after irinotecan
Excerpt: When the tumor volume was more than 600 mm^3 and stable growth was maintained, the experimental animals were randomly divided by the remainder method and administered according to the size of the tumor volume. […] The subcutaneous tumors were stripped and weighed.
T was the subject and C is the model control.
Tumor volume growth was observed on a regular basis after completion of dosing.

NCI-H460 = assay: In vitro inhibition of human tumor cells, NCI-H460, MTT method; assay type: cell-based
Description: (§1) The cells were allowed to adhere overnight.
(§2) Adherent cells: Culture medium was aspirated and 100 μl/wells of basal culture (generally refers to medium without fetal bovine serum (FBS) and other additives) containing 0.5 mg/ml MTT were added. The cells were cultured for 3 hours. MTT-containing basal medium was aspirated and 100 μl/wells of DMSO were added to dissolve formazan.
(§3) Unstably adherent cells: Unstably adherent cells were directly added to the MTT solution to achieve the concentration of 0.5 mg/ml and cultured for 3 hours. The ternary solution in an equal volume to the system was added to the system to dissolve the formazan.
(§4) The DMSO concentration was 0.1%.

LoVo = assay: In vitro inhibition of human tumor cells, LoVo, SRB method; assay type: cell-based
Excerpt: as §1
(§5) Trichloroacetic acid was removed. […] Excess SRB was removed.
as §4

SW620 = assay: In vitro inhibition of human tumor cells, SW620, SRB method; assay type: cell-based
Excerpt: as §1, §5, §4

BxPC-3 = assay: In vitro inhibition of human tumor cells, BxPC-3, MTT method; assay type: cell-based
Description: as §1, §2, §3, §4

HCT116 = assay: In vitro inhibition of human tumor cells, HCT116, MTT method; assay type: cell-based
Description: as §1, §2, §3, §4

[2] = system: human small cell lung cancer NCI-H446; conditions: 20 mg/kg i.v. qw × 2; NCI-H446 model
Description: An allogeneic transplantation model of human small cell lung cancer NCI-H446 was established in nude mice subcutaneously using a tumor block inoculation method. When the tumor volume of the allogeneic transplantation was about 100 to 300 mm^3 and remained stable, the experimental animals were randomly divided into groups according to the size of the tumor volume (day 0, i.e., d0) using a remainder method. The tumor volume was measured 2 to 3 times a week. At the end of the dosage period, the experimental animals were sacrificed. The subcutaneous tumors were peeled and weighed. The anti-tumor activity of the drug against the model was evaluated based on tumor volume and tumor weight-related data.
(§6) The calculation formula of the tumor volume was: Volume=0.5×long diameter×short diameter×short diameter.
(§7) V0 was the resulting tumor volume measured at the time of dosing in groups (i.e., d0) and Vt was the tumor volume at each measurement.
(§8) T was the subject and C was the model control.
(§9) TRTV was the average RTV of the subject, and CRTV was the average RTV of the model control group.
(§10) Wn: average body weight of each group of experimental animals on day n, and W0: average body weight of each group of experimental animals on day 0.

[3] = system: human pancreatic cancer BxPC-3; conditions: 30 mg/kg i.v. qw × 2; BxPC-3 large tumors after irinotecan
Description: (§11) When the tumor volume of the allogeneic transplantation was about 100 to 300 mm^3 and remained stable, the experimental animals were randomly divided into groups according to the size of the tumor volume (day 0) by using a remainder method. The tumor volume was measured 2 to 3 times a week. At the end of the dosage period, the experimental animals were sacrificed. The subcutaneous tumors were peeled and weighed. The anti-tumor activity of the drug against the model was evaluated based on tumor volume and tumor weight-related data.
as §6, §7, §8, §9, §10
(§12) In the large tumor efficacy test after the second grouping of the G5 group, since the number of samples in each group of G6.1 and G6.4 was less than three, the relevant data of the large tumor efficacy test were statistically analyzed among groups using the T-Test method.

[4] = system: human pancreatic cancer BxPC-3; assay: Growth of human pancreatic cancer BxPC-3 in allogeneic transplantation model; assay type: in vivo, nude mice; conditions: 25 mg/kg i.v. qw × 2; BxPC-3 model
Description: as §11, §6, §7, §8, §9, §10, §12

[5] = No βGU (direct effects of compound on cells)

Row | Substance | IC50 (MDA-MB-468; Adding βGU) [nM] | IC50 (MDA-MB-468; No βGU) [nM] | IC50 (NCI-N87; Adding βGU) [nM] | IC50 (NCI-N87; No βGU) [nM] | IC50 (NCI-H460; Adding βGU) [nM] | IC50 (NCI-H460; No βGU) [nM] | IC50 (LoVo; Adding βGU) [nM] | IC50 (LoVo; No βGU) [nM] | IC50 (SW620; Adding βGU) [nM] | IC50 (SW620; No βGU) [nM] | IC50 (BxPC-3; Adding βGU) [nM] | IC50 (BxPC-3; No βGU) [nM] | IC50 (HCT116; Adding βGU (β-glucuronidase)) [nM] | IC50 (HCT116; [5]) [nM] | inhibition rate at 2 μM (NCI-N87; No βGU) | further results
1 | (2S,3S,4S,5R,6S)-6-(3-((1-(2-(2-((4′-(E)-(8-amino-1-hydroxy-5,7-disulfonicnaphthalen-2-yl)diazenyl)-3,3′-dimethyl-[1,1′-biphenyl]-4-yl)amino)-3-oxopropoxy)ethyl)-1H-1,2,3-triazol-4-yl)methoxy)-4-((((S)-4,11-diethyl-4-hydroxy-3,14-dioxy-3,4,12,14-tetrahydro-1H-pyrano[3′,4′:6,7]indolazino[1,2-b]quinolin-9-yl)oxy)methyl)phenoxy)-3,4,5-trihydroxytetrahydro-2H-pyran-2-carboxylate trisodium [Example 101] | 11 | 372 | 51 | 1240 | – | – | – | – | – | – | – | – | – | – | – | Relative volume RTV (X ± S.D.) [1]: 0.90 ± 0.20; T/C (%) [1]: 24.2%; Tumor inhibition rate (%) [1]: 81.6%; Tumor weight (g, X ± S.D.) [1]: 0.501 ± 0.081 g
2 | (2S,3S,4S,5R,6S)-6-(3-((1-(3-(2-((4′-(E)-(8-amino-1-hydroxy-5,7-disulfonicnaphthalen-2-yl)diazenyl)-3,3′-dimethyl-[1,1′-biphenyl]-4-yl)amino)-2-oxoethoxy)propyl)-1H-1,2,3-triazol-4-yl)methoxy)-4-((((S)-4,11-diethyl-4-hydroxy-3,14-dioxy-3,4,12,14-tetrahydro-1H-pyrano[3′,4′:6,7]indolazino[1,7]quinolin-9-yl)oxy)methyl)phenoxy)-3,4, 5-trihydroxytetrahydro-2H-pyran-2-carboxylate trisodium [Example 96] | 7.5 | 213 | 30 | 964 | – | – | – | – | – | – | – | – | – | – | – | Relative volume RTV (X ± S.D.) [1]: 0.78 ± 0.03; T/C (%) [1]: 21.0%; Tumor inhibition rate (%) [1]: 84.4%; Tumor weight (g, X ± S.D.) [1]: 0.425 ± 0.091 g
3 | (2S,3S,4S,5R,6S)-6-(3-((1-(6-((4′-((E)-(8-amino-1-hydroxy-5,7-disulfonicnaphthalen-2-yl)diazenyl)-3,3′-dimethoxy-[1,1′-biphenyl]-4-yl)amino)-6-oxohexyl)-1H-1,2,3-triazol-4-yl)methoxy)-4-(((S)-4-ethyl-4-hydroxy-3,14-dioxy-3,4,12,14-tetrahydro-1H-pyrano[3′,4′:6,7]indolazino[1,2-b]quinolin-9-yl)oxy)methyl)phenoxy)-3,4,5-trihydroxytetrahydro-2H-pyran-2-carboxylate trisodium [Example 31] | 11 | 329 | 62 | 1770 | 19 | 540 | 32 | 699 | 10 | 220 | 21 | 518 | 9.3 | 339 | – | –
4 | (2S,3S,4S,5R,6S)-6-(3-((1-(6-((4′-((E)-(8-amino-1-hydroxy-5,7-disulfonicnaphthalen-2-yl)diazenyl)-3,3′-dimethyl-[1,1′-biphenyl]-4-yl)amino)-6-oxohexyl)-1H-1,2,3-triazol-4-yl)methoxy)-4-((((S)-4,11-diethyl-4-hydroxy-3,14-dioxy-3,4,12,14-tetrahydro-1H-pyrano[3′,4′:6,7]indolazino[1,2-b]quinolin-9-yl)oxy)methyl)2-methylphenoxy)-3,4,5-trihydroxytetrahydro-2H-pyran-2-carboxylate trisodium [Example 14] | 4.4 | 106 | 26 | 1480 | 8.7 | 533 | 10 | 204 | 6.3 | 151 | 16 | 406 | 3.3 | 175 | – | Relative volume RTV (X ± S.D.) [2]: 0.69 ± 0.45; T/C (%) [2]: 10.2%; Tumor inhibition rate (%) [2]: 91.3%; Tumor weight (g, X ± S.D.) [2]: 0.085 ± 0.075 g
5 | (2S,3S,4S,5R,6S)-6-(3-((1-(6-((4′-((E)-(8-amino-1-hydroxy-5,7-disulfonicnaphthalen-2-yl)diazenyl)-3,3′-dimethyl-[1,1′-biphenyl]-4-yl)amino)-6-oxohexyl)-1H-1,2,3-triazol-4-yl)methoxy)-4-(((S)-4-ethyl-4-hydroxy-3,14-dioxy-3,4,12,14-tetrahydro-1H-pyrano[3′,4′:6,7]indolazino[1,2-b]quinolin-9-yl)oxy)methyl)phenoxy)-3,4,5-trihydroxytetrahydro-2H-pyran-2-carboxylate trisodium [Example 24] | 11 | 171 | 61 | – | 39 | 1720 | 18 | 764 | 6.5 | 915 | 19 | 1270 | 14 | 339 | 2 μM about 34.4% | Relative volume RTV (X ± S.D.) [3]: 1.04 ± 0.07; T/C (%) [3]: 25.5%; Tumor inhibition rate (%) [3]: 75.3%; Tumor weight (g, X ± S.D.) [3]: 0.742 ± 0.267 g; Relative volume RTV (X ± S.D.) [4]: 0.46 ± 0.12; T/C (%) [4]: 9.6%; Tumor inhibition rate (%) [4]: 92.0%; Tumor weight (g, X ± S.D.) [4]: 0.134 ± 0.080 g
6 | (2S,3S,4S,5R,6S)-6-(3-((1-(6-((4′-((E)-(8-amino-1-hydroxy-5,7-disulfonicnaphthalen-2-yl)diazenyl)-[1,1′-biphenyl]-4-yl)amino)-6-oxohexyl)-1H-1,2,3-triazol-4-yl)methoxy)-4-((((S)-4,11-diethyl-4-hydroxy-3,14-dioxo-3,4,12,14-tetrahydro-1H-pyrano[3′,4′:6,7]indolazino[1,7]quinolin-9-yl)oxy)methyl)-2-methylphenoxy)-3,4,5-trihydroxytetrahydro-2H-pyran-2-carboxylate trisodium [Example 18] | 5.5 | 110 | 29 | – | 7.6 | 533 | 19 | 812 | 6.8 | 204 | 17 | 1620 | 6.5 | 186 | 2 μM about 49.3% | –
7 | (2S,3S,4S,5R,6S)-6-(3-((1-(6-((4′-((E)-(8-amino-1-hydroxy-5,7-disulfonicnaphthalen-2-yl)diazenyl)-[1,1′-biphenyl]-4-yl)amino)-6-oxohexyl)-1H-1,2,3-triazol-4-yl)methoxy)-4-((((S)-4-ethyl-4-hydroxy-3,14-dioxo-3,4,12,14-tetrahydro-1H-pyrano[3′,4′:6,7]indolazino[1,2-b]quinolin-9-yl)oxy)methyl)phenoxy)-3,4,5-trihydroxytetrahydro-2H-pyran-2-carboxylate trisodium [Example 29] | 14 | 788 | 64 | – | 30 | – | 55 | 1200 | 9.6 | 350 | 38 | 916 | 17 | 1350 | 2 μM about 31.0% | inhibition rate at 2 μM (NCI-H460; No βGU, 2 μM): 2 μM about 43.9%
8 | (2S,3S,4S,5R,6S)-6-(3-((1-(8-((4′-((E)-(8-amino-1-hydroxy-5,7-disulfonicnaphthalen-2-yl)diazenyl)-3,3′-dimethyl-[1,1′-biphenyl]-4-yl)amino)-8-oxooctyl)-1H-1,2,3-triazol-4-yl)methoxy)-4-((((S)-4,11-diethyl-4-hydroxy-3,14-dioxy-3,4,12,14-tetrahydro-1H-pyrano[3′,4′:6,7]indolazino[1,2-b]quinolin-9-yl)oxy)methyl)-2-methylphenoxy)-3,4,5-trihydroxytetrahydro-2H-pyran-2-carboxylate trisodium [Example 48] | 7.3 | 94 | 52 | 1200 | 6.8 | 419 | 28 | 372 | 10 | 230 | 28 | 432 | 5.9 | 119 | – | –
